Results: patent US7795381B2, “Methods and materials for cancer treatment” (Mayo Foundation for Medical Education and Research, priority 2001, dated 2010)
Entries after “also recorded” stand apart in the source; their conditions may differ. No end group written: not given here.

What was measured:
Format in all cases: cell-based, human
melanoma cells = assay: Antigen-specific cytotoxicity, JAM assay; conditions: HLA-DQw6-restricted HTL; DQw6 positive melanoma cell line (1102 mel)
Experimental: The capacity of HTL lines and clones to kill tumor cells expressing the appropriate polypeptide/MHC complexes was evaluated using the JAM assay (Matzinger P, J Immunol Methods 145:185 (1991)), which measures the DNA retained by target living cells after incubation with effector T-cells. Briefly, target cells were labeled with of [^3H]-thymidine for 18 hrs in tissue culture. After washing and counting the cells, they were incubated at various effectors to target ratio in 96-well round-bottomed plates for 36 hours. The cultures were then harvested onto glass fiber filters, and the amount of radioactivity retained in DNA is measured in a scintillation counter. The percent cytotoxicity was calculated by the ratio of cpm obtained in the absence of T-cells over the cpm obtained in the presence of different amounts of T-cells X 100. All determinations were done in triplicates.

[1] = tested on: PBMC from normal individuals; assay: In vitro immunization of PBMC using polypeptide-pulsed DC (CTL induction)
Text: See, Manici et al., J Exp Med 189:871 (1999); Fujita et al., Eur J Immunol 28:305 (1998); Zarour et al., Cancer Res 60:4946 (2000); Touloukian et al., J Immunol 164:3535 (2000); Zarour et al., Proc Natl Acad Sci USA 97:400 (2000); Yasukawa et al., Blood 92:3355 (1998).

CD4+ T cells (HTL lines) [2] = assay: T-cell proliferative response to polypeptide, dose curve ([3H]-thymidine); conditions: for polypeptide concentration required to obtain 50% of the maximal proliferation: HLA-DR7-restricted HTL lines, polypeptide presented by autologous PBMC
Experimental: Polypeptides gp10074-89, gp100175-189 and gp100576-590 were tested for their capacity to stimulate CD4^+ T cells obtained from four healthy, MHC-typed individuals in primary in vitro cultures using polypeptide-pulsed autologous dendritic cells (DC). The method used to generate tumor antigen-reactive HTL lines and clones using polypeptide-stimulated peripheral blood mononuclear cells (PBMC) was recently described in detail (Kobayashi H et al., Cancer Res 60:5228 (2000)). Briefly, DC were generated in tissue culture from adherent monocytes that were cultured for 7 days in the presence of GM-CSF and IL-4. A total of (1×10^4) polypeptide-pulsed DC (10 μg/ml for 2 hr) were irradiated (4,200 rad) and co-cultured with 3×10^4 autologous purified CD4^+ T cells (using magnetic microbeads from Miltenyi Biotech) in each well of a 96-round bottom well culture plate. Seven days later, the cultures were restimulated with polypeptide-pulsed irradiated autologous PBMC and two days later, human rIL-2 was added at a final concentration of 10 IU/ml. After 7 days, the microcultures were tested for their proliferative responses to polypeptide as described below. Those micro-wells showing a proliferative response to polypeptide (at least 2.5 fold over background) were expanded in 24 or 48-well plates by weekly restimulation with polypeptides and irradiated autologous PBMC. In some instances T-cell lines were cloned by limiting dilution and used for further studies. […]
T cells (3×10^4/well) were mixed with irradiated APC in the presence of various concentrations of antigen (polypeptides, tumors or tumor lysates), in 96-well culture plates. […] The radioactivity incorporated into DNA, which correlates with cell proliferation, was measured in a liquid scintillation counter after harvesting the cell cultures onto glass fiber filters. […] The stimulation index (SI) was calculated by dividing the mean radioactivity (cpm) obtained in the presence of antigen by the mean radioactivity (cpm) obtained in the absence of antigen but in the presence of APC.

[3] = tested on: melanoma tumor cells or tumor lysates presented by APC; assay: Recognition of naturally processed antigen by polypeptide-reactive HTL (proliferation, GM-CSF/IFN-γ ELISA); conditions: for HTL recognition of melanoma tumor cell lysates presented by autologous APC / HTL recognition of antigen presented directly by intact melanoma cells: HLA-DR7-restricted HTL lines; for HTL recognition of melanoma tumor cell lysates presented by autologous APC: 697 mel lysate; for HTL recognition of antigen presented directly by intact melanoma cells: HLA-DR7+ melanoma (HT-144); for recognition of naturally processed antigen by HTL reactive to the polypeptide: MHC class II positive melanomas or APC fed with tumor lysates
Text: Recognition of naturally processed antigen by polypeptide-reactive T-cells can be an important parameter to determine whether a predicted T-cell epitope can be used to elicit an immune response against tumor cells. HTL may recognize polypeptide/MHC class II complexes directly on tumor cells that are MHC class II positive and as a consequence the T-cells will become activated and produce cytokines that provide help to CTL or cytokines that may inhibit tumor cell growth.
(§1) T cells (3×10^4/well) were mixed with irradiated APC in the presence of various concentrations of antigen (polypeptides, tumors or tumor lysates), in 96-well culture plates. APC consisted of either PBMC (1×10^5/well), HLA-DR-expressing L-cells (3×10^4/well), EBV-LCL or melanoma tumor cells (3×10^4/well), pretreated with IFN-γ (500 U/ml for 48 h) to enhance MHC expression. Proliferation assays were incubated at 37° C. in a 5% CO2 incubator for 72 h and during the last 16 h, each well was pulsed with 0.5 μCi/well of [^3H]-thymidine (Amersham Pharmacia Biotech, Piscataway, N.J.). In some cases, culture supernatants were collected before the addition of [^3H]-thymidine for the determination of lymphokine production using ELISA kits (Pharmingen, San Diego, Calif.). The radioactivity incorporated into DNA, which correlates with cell proliferation, was measured in a liquid scintillation counter after harvesting the cell cultures onto glass fiber filters. […] The stimulation index (SI) was calculated by dividing the mean radioactivity (cpm) obtained in the presence of antigen by the mean radioactivity (cpm) obtained in the absence of antigen but in the presence of APC.

CD4+ T cells (HTL lines) [4] = assay: MHC restriction analysis of HTL proliferative response (anti-HLA-DR/-DQ blocking, HLA-transfected L-cells, LCL); conditions: for ability to trigger HTL restricted by other alleles such as HLA-DR1 or -DR4: 2 experiments with cells from 2 donors; for MHC restriction of the induced CD4+ T-cell (HTL) proliferative response: anti-DR/anti-DQ antibody blocking, HLA-transfected L-cells, allogeneic LCL
Experimental: Polypeptides gp10074-89, gp100175-189 and gp100576-590 were tested for their capacity to stimulate CD4^+ T cells obtained from four healthy, MHC-typed individuals in primary in vitro cultures using polypeptide-pulsed autologous dendritic cells (DC). The method used to generate tumor antigen-reactive HTL lines and clones using polypeptide-stimulated peripheral blood mononuclear cells (PBMC) was recently described in detail (Kobayashi H et al., Cancer Res 60:5228 (2000)). Briefly, DC were generated in tissue culture from adherent monocytes that were cultured for 7 days in the presence of GM-CSF and IL-4. A total of (1×10^4) polypeptide-pulsed DC (10 μg/ml for 2 hr) were irradiated (4,200 rad) and co-cultured with 3×10^4 autologous purified CD4^+ T cells (using magnetic microbeads from Miltenyi Biotech) in each well of a 96-round bottom well culture plate. Seven days later, the cultures were restimulated with polypeptide-pulsed irradiated autologous PBMC and two days later, human rIL-2 was added at a final concentration of 10 IU/ml. After 7 days, the microcultures were tested for their proliferative responses to polypeptide as described below. Those micro-wells showing a proliferative response to polypeptide (at least 2.5 fold over background) were expanded in 24 or 48-well plates by weekly restimulation with polypeptides and irradiated autologous PBMC. In some instances T-cell lines were cloned by limiting dilution and used for further studies. Culture medium for all procedures consisted of RPMI-1640 supplemented with 5% human male AB serum, 0.1 mM MEM nonessential amino acids, 1 mM sodium pyruvate, 2 mM L-glutamine, and 50 μg/ml gentamicin.
as §1, with “In some cases, culture supernatants were collected before the addition of [^3H]-thymidine for the determination of lymphokine production using ELISA kits (Pharmingen, San Diego, Calif.).” left out

## GRAMLGTHTMEVTVY [gp100175-189, GRAMLGTHTMEVTVY]
Melanoma cells
  cytotoxicity of polypeptide-reactive HTL: high levels of cytotoxicity

## gp100177-186: potent HLA-A2-restricted CTL epitope included in polypeptide gp100175-189 (AMLGTHTMEV; UniProt P40967 177-186, looked up, fragment)
[1]
  induction of anti-tumor CTL responses: very effective in inducing anti-tumor CTL responses

## GPTLIGANASFSIALN [gp10074-89]
CD4+ T cells (HTL lines) [2]
  polypeptide concentration required to obtain 50% of the maximal proliferation: ~0.6 µg/mL
[3]
  HTL recognition of melanoma tumor cell lysates presented by autologous APC: efficient at recognizing tumor cell lysates
  HTL recognition of antigen presented directly by intact melanoma cells: effective in recognizing antigen
  recognition of naturally processed antigen by HTL reactive to the polypeptide: can recognize naturally processed antigen; also recorded: capable of recognizing naturally processed antigen
CD4+ T cells (HTL lines) [4]
  ability to trigger HTL restricted by other alleles such as HLA-DR1 or -DR4: not able to trigger
  MHC restriction of the induced CD4+ T-cell (HTL) proliferative response: restricted by the HLA-DR7 allele

## SLAVVSTQLIMPGQE [gp100576-590]
CD4+ T cells (HTL lines) [2]
  polypeptide concentration required to obtain 50% of the maximal proliferation: ~0.04 µg/mL
CD4+ T cells (HTL lines) [2]; by amount of polypeptide required to achieve 50% of maximal proliferative response
  affinity of T-cell response, higher than the response to polypeptide gp10074-89: ~15 fold
[3]
  HTL recognition of melanoma tumor cell lysates presented by autologous APC: could not be detected
  HTL recognition of antigen presented directly by intact melanoma cells: could not be detected
  recognition of naturally processed antigen by HTL reactive to the polypeptide: did not proliferate or produce lymphokines
CD4+ T cells (HTL lines) [4]
  ability to trigger HTL restricted by other alleles such as HLA-DR1 or -DR4: not able to trigger
  MHC restriction of the induced CD4+ T-cell (HTL) proliferative response: restricted by the HLA-DR7 allele
